Values belong to the compound of their own block, whether it stands above or below them.
What was measured:
GST-PPARG-LBD = GST-PPARG-LBD (Homo sapiens (Human), UniProt P37231); test: Lanthascreen PPARG competitive binding assay (Invitrogen, TR-FRET); conditions: Lanthascreen competitive binding; NA = not active; inc = incomplete curve; read-out: IC50 (nM) Lantha
Summary of the method: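 TR-FRET competitive binding of GST-PPARG-LBD with 5 nM Tb-GST-antibody and 5 nM Fluormone Pan-PPAR Green tracer, in TR-FRET buffer C. Compound serially diluted from 10 μM, 2 h dark incubation, in triplicate. Readout is 520/490 nm emission ratio (340 nm excitation), expressed as fold change over 2% DMSO control.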

[1] = test system: PPARG (murine PPARg2 or full-length human PPARG, 3xPPRE-luciferase reporter); test: Cell-based PPRE-luciferase transactivation assay in COS-1 cells; conditions: for EC50: PPRE-luciferase, COS-1 cells, NA = not active, read-out: EC50 (nM) PPRE; for PPRE transactivation (% in parentheses): rosiglitazone = 100%
Experimental: Cell-Based Transactivation Assay:
PPRE is a DNA that contains a binding site for PPARG; thus PPRE is a PPAR response element, used herein as a promoter reporter. The binding site is a DR1 response element with the sequence AGGTCA repeated 3 times in tandem and then fused to a construct for luciferase.
Thus, PPRE is the basis of the cell based transactivation assay described below. The plasmid DNA is co-transfected along with a plasmid for PPARG into COS-1 cells. After an overnight incubation, cells are treated with DMSO or compounds.
Confluent COS-1 cells were transfected with 4.5 μg murine PPARg2-pSV Sport or full-length human PPAR9-pSport6, 4.5 μg 3×PPRE-luciferase reporter and 27 μL X-treme Gene 9 transfection reagent in serum-free opti-mem media (Gibco), followed by overnight incubation at 37° C., 5% CO2. Transfected cells were plated in white Perkin Elmer 384-well plates and incubated 4 hours. […] After 18 hour incubation, treated cells were developed with Brite Lite Plus (Perkin Elmer) and read in 384-well Luminescence Perkin Elmer EnVision Multilabel plate reader. Graphs were plotted in triplicate in GraphPad Prism Software as fold change of treated cells over DMSO control cells.

GST-PPARG-LBD, sequence (P37231 238-503): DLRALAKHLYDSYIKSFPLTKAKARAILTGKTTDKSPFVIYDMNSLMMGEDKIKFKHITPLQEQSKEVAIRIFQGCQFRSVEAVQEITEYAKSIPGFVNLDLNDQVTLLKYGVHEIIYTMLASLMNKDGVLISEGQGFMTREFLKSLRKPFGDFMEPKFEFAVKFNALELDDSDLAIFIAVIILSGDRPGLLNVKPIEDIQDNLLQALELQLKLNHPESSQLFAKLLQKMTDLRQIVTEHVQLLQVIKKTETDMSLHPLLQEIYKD

Structure (SMILES): Cc1c(C)n(Cc2ccc(-c3ccccc3C(=O)O)cc2)c2ccc(C(=O)N[C@@H](CO)c3ccccc3)cc12 [Example 79, (R)-4′-((5-(2-hydroxy-1-phenylethylcarbamoyl)-2,3-dimethyl-1H-indol-1-yl)methyl)biphenyl-2-carboxylic acid]
IC50 (GST-PPARG-LBD): 37 nM
EC50 [1]: 297 nM
PPRE transactivation (% in parentheses) [1]: (25%)

Structure (SMILES): Cc1c(C)n(Cc2ccc(-c3ccccc3C(=O)O)cc2)c2ccc(C(=O)NCc3ccc(I)cc3)cc12 [compound 7, 4′-((5-(4-Iodobenzylcarbamoyl)-2,3-dimethyl-1H-indol-1-yl)methyl)biphenyl-2-carboxylic acid]
IC50 (GST-PPARG-LBD): 4 nM
EC50 [1]: 19 nM
PPRE transactivation (% in parentheses) [1]: (23%)

Structure (SMILES): Cc1c(C)n(Cc2ccc(-c3ccccc3C(=O)O)cc2)c2ccc(C(=O)NCc3cccc(C(F)(F)F)c3)cc12 [Example 100, 4′-((2,3-dimethyl-5-(3-(trifluoromethyl)benzylcarbamoyl)-1H-indol-1-yl)methyl)biphenyl-2-carboxylic acid]
IC50 (GST-PPARG-LBD): 191 nM
EC50 [1]: 281 nM
PPRE transactivation (% in parentheses) [1]: (21%)

Structure (SMILES): Cc1c(C)n(Cc2ccc(-c3ccccc3-c3nnn[nH]3)cc2)c2ccc(C(=O)N[C@@H](C)c3ccc(Br)cc3)cc12 [Example 37, (S)-1-((2′-(1H-tetrazol-5-yl)-[1,1′-biphenyl]-4-yl)methyl)-N-(1-(4-bromophenyl)ethyl)-2,3-dimethyl-1H-indole-5-carboxamide]
IC50 (GST-PPARG-LBD): > 1000 nM
EC50 [1]: 1000 nM
PPRE transactivation (% in parentheses) [1]: (19%)

Structure (SMILES): Cc1c(C)n(Cc2ccc(-c3ccccc3C(=O)O)cc2)c2ccc(C(=O)NCCN3CCOCC3)cc12 [Example 85, 4′-((2,3-dimethyl-5-(2-morpholinoethylcarbamoyl)-1H-indol-1-yl)methyl)biphenyl-2-carboxylic acid]
IC50 (GST-PPARG-LBD): > 1000 nM
PPRE transactivation (% in parentheses) [1]: (0%)

Structure (SMILES): Cc1c(C)n(Cc2ccc(-c3ccccc3C(=O)O)cc2)c2ccc(C(=O)NC(C)(C)c3ccccc3)cc12 [compound 25, 4′-((2,3-Dimethyl-5-((2-phenylpropan-2-yl)carbamoyl)-1H-indol-1-yl)methyl)-[1,1′-biphenyl]-2-carboxylic acid]
IC50 (GST-PPARG-LBD): 0.5 nM
EC50 [1]: 2.5 nM
PPRE transactivation (% in parentheses) [1]: (15%)

Structure (SMILES): Cc1c(C)n(Cc2ccc(-c3ccccc3C(=O)O)cc2)c2ccc(C(=O)NCC3COc4ccccc4C3)cc12 (stereo not shown) [Example 87, 4′-((5-(chroman-3-ylmethylcarbamoyl)-2,3-dimethyl-1H-indol-1-yl)methyl)biphenyl-2-carboxylic acid]
IC50 (GST-PPARG-LBD): 17 nM
EC50 [1]: 200 nM
PPRE transactivation (% in parentheses) [1]: (18%)

Structure (SMILES): Cc1ccc(CNC(=O)c2ccc3c(c2)c(C)c(C)n3Cc2ccc(-c3ccccc3C(=O)O)cc2)o1 [Example 84, 4′-((2,3-dimethyl-5-((5-methylfuran-2-yl)methylcarbamoyl)-1H-indol-1-yl)methyl)biphenyl-2-carboxylic acid]
IC50 (GST-PPARG-LBD): 12 nM
EC50 [1]: 40 nM
PPRE transactivation (% in parentheses) [1]: (17%)

Structure (SMILES): CCC(NC(=O)c1ccc2c(c1)c(C)c(C)n2Cc1ccc(-c2ccccc2-c2nnn[nH]2)cc1)c1ccccc1 (stereo not shown) [Example 36, 1-((2′-(1H-Tetrazol-5-yl)-[1,1′-biphenyl]-4-yl)methyl)-2,3-dimethyl-N-(1-phenylpropyl)-1H-indole-5-carboxamide]
IC50 (GST-PPARG-LBD): 6 nM
EC50 [1]: 2 nM
PPRE transactivation (% in parentheses) [1]: (23%)

IC50 (GST-PPARG-LBD): 34 nM
EC50 [1]: 9000 nM
Structure (SMILES): Cc1c(C)n(Cc2ccc(-c3ccccc3C(=O)O)cc2)c2ccc(C(=O)NCc3ccc(C#N)cc3)cc12 [compound 8, 4′-((5-(4-Cyanobenzylcarbamoyl)-2,3-dimethyl-1H-indol-1-yl)methyl)biphenyl-2-carboxylic acid]
PPRE transactivation (% in parentheses) [1]: (12%)

Structure (SMILES): CCC(NC(=O)c1ccc2c(ccn2Cc2ccc(-c3ccccc3C(=O)O)cc2)c1)c1ccccc1 (stereo not shown) [Example 131, 4′-((5-((1-Phenylpropyl)carbamoyl)-1H-indol-1-yl)methyl)-[1,1′-biphenyl]-2-carboxylic acid]
IC50 (GST-PPARG-LBD): 6 nM
EC50 [1]: 6 nM
PPRE transactivation (% in parentheses) [1]: (20%)

Structure (SMILES): Cc1c(C)n(Cc2ccc(-c3ccccc3C(=O)O)cc2)c2ccc(C(=O)NC3COc4ccccc4C3)cc12 (stereo not shown) [Example 86, 4′-((5-(chroman-3-ylcarbamoyl)-2,3-dimethyl-1H-indol-1-yl)methyl)biphenyl-2-carboxylic acid]
IC50 (GST-PPARG-LBD): 10 nM
PPRE transactivation (% in parentheses) [1]: (0%)

Structure (SMILES): CCC(NC(=O)c1ccc2c(ccn2Cc2ccccc2-c2cccc(C(=O)O)c2)c1)c1ccccc1 (stereo not shown) [Example 69, 2′-((5-((1-Phenylpropyl)carbamoyl)-1H-indol-1-yl)methyl)-[1,1′-biphenyl]-3-carboxylic acid]
IC50 (GST-PPARG-LBD): 4 nM
PPRE transactivation (% in parentheses) [1]: (0%)

Structure (SMILES): Cc1c(C)n(Cc2ccc(-c3ccccc3C(=O)O)cc2)c2ccc(C(=O)NCc3ccccc3Cl)cc12 [Example 108, 4′-((5-(2-chlorobenzylcarbamoyl)-2,3-dimethyl-1H-indol-1-yl)methyl)biphenyl-2-carboxylic acid]
IC50 (GST-PPARG-LBD): 6 nM
EC50 [1]: 535 nM
PPRE transactivation (% in parentheses) [1]: (15%)

Structure (SMILES): COc1ccc(CNC(=O)c2ccc3c(c2)c(C)c(C)n3Cc2ccc(-c3ccccc3C(=O)O)cc2)cc1OC [compound 24, 4′-((5-(3,4-Dimethoxybenzylcarbamoyl)-2,3-dimethyl-1H-indol-1-yl)methyl)biphenyl-2-carboxylic acid]
IC50 (GST-PPARG-LBD): 125 nM
PPRE transactivation (% in parentheses) [1]: (0%)

Structure (SMILES): Cc1c(C)n(Cc2ccc(-c3ccccc3C(=O)O)cc2)c2ccc(C(=O)NCc3ccc(-c4ccccc4)cc3)cc12 [Example 102, 4′-((5-(biphenyl-4-ylmethylcarbamoyl)-2,3-dimethyl-1H-indol-1-yl)methyl)biphenyl-2-carboxylic acid]
IC50 (GST-PPARG-LBD): 247 nM
EC50 [1]: 1.2 nM
PPRE transactivation (% in parentheses) [1]: (29%)

Structure (SMILES): Cc1c(C)n(Cc2ccc(-c3ccccc3C(=O)O)cc2)c2ccc(C(=O)NCc3cccc(S(C)(=O)=O)c3)cc12 [compound 4, 4′-((2,3-Dimethyl-5-(3-(methylsulfonyl)benzylcarbamoyl)-1H-indol-1-yl)methyl)biphenyl-2-carboxylic acid]
IC50 (GST-PPARG-LBD): 230 nM
PPRE transactivation (% in parentheses) [1]: (0%)

Structure (SMILES): Cc1c(C)n(Cc2ccc(-c3ccccc3C(=O)O)cc2)c2ccc(C(=O)NC(C)c3cccc4ccccc34)cc12 (stereo not shown) [Example 116, 4′-((2,3-dimethyl-5-(1-(naphthalen-1-yl)ethylcarbamoyl)-1H-indol-1-yl)methyl)biphenyl-2-carboxylic acid]
IC50 (GST-PPARG-LBD): 2 nM
EC50 [1]: 5 nM
PPRE transactivation (% in parentheses) [1]: (16%)

Structure (SMILES): C[C@H](NC(=O)c1ccc2c(ccn2Cc2ccc(-c3ccccc3C(=O)O)cc2)c1)c1ccc(Br)cc1 [Example 130, (S)-4′-((5-((1-(4-Bromophenyl)ethyl)carbamoyl)-1H-indol-1-yl)methyl)-[1,1′-biphenyl]-2-carboxylic acid]
IC50 (GST-PPARG-LBD): 163 nM
PPRE transactivation (% in parentheses) [1]: (0%)

Structure (SMILES): Cc1c(C)n(Cc2ccc(-c3ccccc3C(=O)O)cc2)c2ccc(C(=O)NCc3cccc(OC(F)(F)F)c3)cc12 [compound 5, 4′-((2,3-Dimethyl-5-(3-(trifluoromethoxy)benzylcarbamoyl)-1H-indol-1-yl)methyl)biphenyl-2-carboxylic acid]
IC50 (GST-PPARG-LBD): 157 nM
PPRE transactivation (% in parentheses) [1]: (0%)

Structure (SMILES): COCCNC(=O)c1ccc2c(c1)c(C)c(C)n2Cc1ccc(-c2ccccc2C(=O)O)cc1 [Example 92, 4′-((5-(2-methoxyethylcarbamoyl)-2,3-dimethyl-1H-indol-1-yl)methyl)biphenyl-2-carboxylic acid]
IC50 (GST-PPARG-LBD): 17 nM
EC50 [1]: > 1000 nM
PPRE transactivation (% in parentheses) [1]: (9%)

Structure (SMILES): Cc1c(C)n(Cc2ccc(-c3ccccc3C(=O)O)cc2)c2ccc(C(=O)NCc3cccc(N)c3)cc12 [Example 80, 4′-((5-(3-aminobenzylcarbamoyl)-2,3-dimethyl-1H-indol-1-yl)methyl)biphenyl-2-carboxylic acid]
IC50 (GST-PPARG-LBD): 13 nM
EC50 [1]: 2700 nM
PPRE transactivation (% in parentheses) [1]: (20%)

Structure (SMILES): CCC(NC(=O)c1ccc2c(ccn2Cc2cccc(-c3ccccc3C(=O)O)c2)c1)c1ccccc1 (stereo not shown) [Example 65, 3′-((5-((1-phenylpropyl)carbamoyl)-1H-indol-1-yl)methyl)-[1,1′-biphenyl]-2-carboxylic acid]
IC50 (GST-PPARG-LBD): 6 nM
EC50 [1]: 116 nM
PPRE transactivation (% in parentheses) [1]: (18%)

Structure (SMILES): COc1ccc(CNC(=O)c2ccc3c(c2)c(C)c(C)n3Cc2ccc(-c3ccccc3C(=O)O)cc2)c(OC)c1 [compound 20, 4′-((5-(2,4-Dimethoxybenzylcarbamoyl)-2,3-dimethyl-1H-indol-1-yl)methyl)biphenyl-2-carboxylic acid]
IC50 (GST-PPARG-LBD): 16 nM
PPRE transactivation (% in parentheses) [1]: (0%)

Structure (SMILES): Cc1c(C)n(Cc2ccc(-c3ccccc3C(=O)O)cc2)c2ccc(C(=O)NC3CCCC3)cc12 [Example 90, 4′-((5-(cyclopentylcarbamoyl)-2,3-dimethyl-1H-indol-1-yl)methyl)biphenyl-2-carboxylic acid]
IC50 (GST-PPARG-LBD): 25 nM
EC50 [1]: > 1000 nM
PPRE transactivation (% in parentheses) [1]: (18%)

From patent US8957093B2, “N-biphenylmethylindole modulators of PPARG” (The Scripps Research Institute, priority 2011, dated 2015)
